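Cells were grown in 96-well plates and exposed to each compound for 48 hours at five concentrations; endpoints were interpolated linearly between bracketing concentrations, or set to the highest concentration if not reached. TGI marks complete inhibition of growth.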 A value given as a limit tells only on which side of the number the result lay.

This passage reports TGI results from PubChem BioAssay (NCI).

Test systems include DU-145 prostate; HCT-15 colon; HOP-62 NSCLC; HOP-92 NSCLC; HS 578T breast; M14 melanoma; MCF7 breast; NCI-H226 lung; NCI-H23 lung; NCI/ADR-RES ovarian; OVCAR-3 ovarian; RPMI-8226 leukemia; SF-539 CNS; SK-MEL-28 melanoma; SK-OV-3 ovarian; SR leukemia; SK-MEL-2 melanoma; UACC-257 melanoma.
What all share (assay): NCI anticancer screen, dose series, 48 h

On to `CC(=O)N(C(=O)CC(=O)N/N=C\c1ccc(Br)c(N(CCC#N)CCC#N)c1)c1ccc(Cl)cc1`, for which the TGI in the assay on DU-145 prostate, in the assay on HCT-15 colon, in the assay on HOP-62 NSCLC, in the assay on HOP-92 NSCLC, in the assay with HS 578T breast and in the assay with M14 melanoma was more than 100 µM in each case. In addition, the TGI with MCF7 breast, in the assay with NCI-H226 lung, with NCI-H23 lung, in the assay with NCI/ADR-RES ovarian, with OVCAR-3 ovarian and in the assay on RPMI-8226 leukemia was more than 100 µM throughout. For the same compound, the TGI in the assay with SF-539 CNS, in the assay on SK-MEL-28 melanoma, in the assay on SK-OV-3 ovarian and in the assay on SR leukemia was more than 100 µM each time.

In the case of `N#Cc1c(-c2ccccc2)[nH]c2ccccc2c1=O`, the TGI is more than 100 µM in the assay on DU-145 prostate; more than 100 µM with HCT-15 colon; 84.9 µM with HOP-62 NSCLC; more than 100 µM in the assay with HOP-92 NSCLC; 71.5 µM in the assay with HS 578T breast; more than 100 µM in the assay with M14 melanoma. The TGI in the assay on MCF7 breast, in the assay on NCI-H226 lung, in the assay on NCI/ADR-RES ovarian, with OVCAR-3 ovarian, in the assay on SF-539 CNS and in the assay with SK-MEL-2 melanoma was more than 100 µM each time. In addition, the TGI in the assay on SK-MEL-28 melanoma, with SK-OV-3 ovarian, in the assay with SR leukemia and with UACC-257 melanoma was more than 100 µM throughout.

As for `CCC1c2[nH]c3ccccc3c2C[C@H]2C(=O)NC(COC(C)(C)C)C(=O)N12` (some centres not stated), the TGI is more than 100 µM in the assay on DU-145 prostate; more than 100 µM with HCT-15 colon; more than 100 µM in the assay on HOP-62 NSCLC; 90.6 µM with HOP-92 NSCLC; more than 100 µM in the assay with HS 578T breast; more than 100 µM in the assay with M14 melanoma. Further, the TGI in the assay on MCF7 breast, with NCI-H226 lung, in the assay with NCI-H23 lung, with NCI/ADR-RES ovarian, in the assay on OVCAR-3 ovarian and in the assay with RPMI-8226 leukemia was more than 100 µM throughout. In addition, the TGI is 85 µM in the assay with SK-MEL-2 melanoma; more than 100 µM with SK-MEL-28 melanoma; more than 100 µM in the assay on SK-OV-3 ovarian; more than 100 µM in the assay with SR leukemia; more than 100 µM in the assay on UACC-257 melanoma.

For the compound `CCOC(=O)C1(C(=O)OCC)CN(CC)CN(c2ccccc2)C1`, the TGI is 91.7 µM with DU-145 prostate; 39 µM in the assay on HCT-15 colon; 40.4 µM in the assay on HOP-62 NSCLC; 33.3 µM in the assay with HOP-92 NSCLC; more than 100 µM in the assay with HS 578T breast; 39.1 µM in the assay on M14 melanoma. Besides, the TGI is 35.1 µM with MCF7 breast; 39 µM with NCI-H23 lung; more than 100 µM with NCI/ADR-RES ovarian; 33.5 µM in the assay on OVCAR-3 ovarian; 45 µM with RPMI-8226 leukemia; 41.2 µM in the assay on SF-539 CNS. The TGI with SK-MEL-28 melanoma was 38.8 µM; with SK-OV-3 ovarian, more than 100 µM; in the assay on SR leukemia, 47.7 µM; in the assay with UACC-257 melanoma, 31.1 µM.

In the case of `CC12CCC(C(=O)OC1=O)C2(C)C` (configuration not stated), the TGI with DU-145 prostate, in the assay on HCT-15 colon, in the assay with HOP-62 NSCLC, in the assay on HS 578T breast, in the assay on M14 melanoma and in the assay with MCF7 breast was more than 100 µM each time. The TGI in the assay with NCI-H226 lung, with NCI-H23 lung, in the assay with NCI/ADR-RES ovarian, in the assay on OVCAR-3 ovarian, in the assay on RPMI-8226 leukemia and in the assay with SF-539 CNS was more than 100 µM in each case. For the same compound, the TGI in the assay with SK-MEL-2 melanoma was more than 100 µM; in the assay with SK-MEL-28 melanoma, more than 100 µM; in the assay with SK-OV-3 ovarian it was more than 100 µM; with SR leukemia, 64.3 µM; in the assay with UACC-257 melanoma, more than 100 µM.

For the compound `Cc1cccc2c1[C@]13OC(C)[C@]4(C)CC5OC(=O)[C@@]1(C)[C@@H]5[C@]34C(=O)O2` (some centres not stated), the TGI with DU-145 prostate, with HCT-15 colon, in the assay with HOP-62 NSCLC, in the assay with HS 578T breast, with M14 melanoma and in the assay with MCF7 breast was more than 100 µM each time. Besides, the TGI in the assay on NCI-H226 lung, in the assay with NCI-H23 lung, in the assay on NCI/ADR-RES ovarian, with OVCAR-3 ovarian, in the assay with RPMI-8226 leukemia and with SF-539 CNS was more than 100 µM in each case. Also, the TGI with SK-MEL-2 melanoma, with SK-MEL-28 melanoma, in the assay on SK-OV-3 ovarian, in the assay with SR leukemia and in the assay on UACC-257 melanoma was more than 100 µM in each case.

In the case of `CCN(CC)CCn1nc(N)c2nc3cc(Cl)ccc3nc21`, the TGI in the assay on DU-145 prostate, in the assay with HCT-15 colon, in the assay on HOP-62 NSCLC, in the assay with HOP-92 NSCLC, with HS 578T breast and in the assay on M14 melanoma was more than 100 µM throughout. Further, the TGI with MCF7 breast, in the assay with NCI-H226 lung, in the assay with NCI-H23 lung, in the assay on NCI/ADR-RES ovarian, in the assay on RPMI-8226 leukemia and in the assay with SK-MEL-2 melanoma was more than 100 µM throughout. Further, the TGI with SK-MEL-28 melanoma, in the assay with SK-OV-3 ovarian, with SR leukemia and with UACC-257 melanoma was more than 100 µM in each case.

For `CCC1OC2C(CC=C(C)C)=C3OC(C)(O)C(C)(CC)C(OC(=O)c4ccccc4)C3=C3OC(=O)C=C1C32` (configuration not stated), the TGI with DU-145 prostate, in the assay with HCT-15 colon, with HOP-62 NSCLC, with HOP-92 NSCLC, with HS 578T breast and in the assay with M14 melanoma was more than 100 µM throughout. Further, the TGI with MCF7 breast was more than 100 µM; in the assay on NCI-H23 lung, more than 100 µM; in the assay on NCI/ADR-RES ovarian, more than 100 µM; in the assay on OVCAR-3 ovarian, more than 100 µM; with RPMI-8226 leukemia, more than 100 µM; in the assay on SF-539 CNS it was 54.1 µM. Also, the TGI with SK-MEL-2 melanoma was 55.2 µM; in the assay with SK-MEL-28 melanoma, more than 100 µM; in the assay with SK-OV-3 ovarian, more than 100 µM; with SR leukemia, more than 100 µM; in the assay with UACC-257 melanoma, more than 100 µM.
